# In patent US20240398805A1, “QUINAZOLINE DERIVED COMPOUNDS AS EGFR INHIBITORS AND THEIR USES THEREOF” (ACCUTAR BIOTECHNOLOGY INC., priority 2021, published 2024):
# Legend:
# Format in all cases: cell-based
# [1] = system: A431 cells; experiment: Cell growth inhibition (CellTiter-Glo, 3 days) in A431; conditions: Homo sapiens, A-431, 72 h, 3 days after administration
# In short: (§1)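 HCC827 cells in RPMI/10% FBS and A431 cells in DMEM/10% FBS were seeded at 5000 cells/well and left overnight. Compound was then added over a concentration range for 3 days of incubation, and viability was read by CellTiter-Glo luminescence.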
# [2] = system: HCC827-YVMA cells (human ERBB2 exon20 insertion mutant A775_G776ins YVMA); experiment: Cell growth inhibition (CellTiter-Glo, 3 days) in HCC827-YVMA; conditions: 72 h, 3 days after administration
# In short: (§2)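 HCC827 cells lentivirally transduced with codon-optimized ASV or YVMA insertion mutants were seeded at 5000 cells/well in RPMI with 10% FBS and incubated overnight. Compound was added at various concentrations from a 10× stock in medium, with 3 days' incubation. Viability read by CellTiter-Glo luminescence.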
# [3] = system: HCC827-ASV cells (human EGFR exon 20 insertion mutant A769_D770insASV); experiment: Cell growth inhibition (CellTiter-Glo, 3 days) in HCC827-ASV; conditions: 72 h, 3 days after administration
# In short: as §2
# [4] = system: HCC827-SVD cells (human EGFR exon 20 insertion mutant D770_N771 insSVD); experiment: Cell growth inhibition (CellTiter-Glo, 3 days) in HCC827-SVD; conditions: 72 h, 3 days after administration
# In short: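 HCC827 cells carrying lentiviral codon-optimized EGFR D770_N771 insSVD, with endogenous EGFR knocked out by CRISPR (single clone), seeded at 5000 cells/well in RPMI with 10% FBS. Viability read by CellTiter-Glo luminescence.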
# [5] = system: HCC827 cells; experiment: Cell growth inhibition (CellTiter-Glo, 3 days) in HCC827; conditions: Homo sapiens, 72 h, 3 days after administration
# In short: as §1
GI50 [1],GI50 [2],GI50 [3],GI50 [4],GI50 [5],Compound
0.6 to 1 µM,0.06 to 0.1 µM,0.1 to 0.3 µM,0.1 to 0.3 µM,0.1 to 0.3 µM,"C=CC(=O)N1CCC(Nc2cc3c(Nc4ccc(Oc5ccnc(CN6CCCC6)c5)cc4F)ncnc3cc2OC)CC1 [Example 209, 1-(4-((4-((2-fluoro-4-((2-(pyrrolidin-1-ylmethyl)pyridin-4-yl)oxy)phenyl)amino)-7-methoxyquinazolin-6-yl)amino)piperidin-1-yl)prop-2-en-1-one]"
0.3 to 0.6 µM,< 0.03 µM,< 0.03 µM,< 0.03 µM,0.06 to 0.1 µM,"C=CC(=O)N1CCC(Nc2cc3c(Nc4ccc(Oc5ccnc(N6CCC(F)(F)C6)c5)cc4F)ncnc3cc2OC)CC1 [Example 194, 1-(4-((4-((4-((2-(3,3-difluoropyrrolidin-1-yl)pyridin-4-yl)oxy)-2-fluorophenyl)amino)-7-methoxyquinazolin-6-yl)amino)piperidin-1-yl)prop-2-en-1-one]"
0.1 to 0.3 µM,< 0.03 µM,< 0.03 µM,< 0.03 µM,0.03 to 0.06 µM,"C=CC(=O)N1CCC(Nc2cc3c(Nc4ccc(Oc5ccnc(N6CC(C)(OC)C6)c5)cc4F)ncnc3cc2OC)CC1 [Example 207, 1-(4-((4-((2-fluoro-4-((2-(3-methoxy-3-methylazetidin-1-yl)pyridin-4-yl)oxy)phenyl)amino)-7-methoxyquinazolin-6-yl)amino)piperidin-1-yl)prop-2-en-1-one]"
≥ 1 µM,0.6 to 1 µM,0.6 to 1 µM,0.3 to 0.6 µM,≥ 1 µM,"C=CC(=O)N1CCC(Nc2cc3c(Nc4ccc(Oc5ccnc(N6CCC[C@@H](N)C6)c5)cc4F)ncnc3cc2OC)CC1 [Example 217, (R)-1-(4-((4-((4-((2-(3-aminopiperidin-1-yl)pyridin-4-yl)oxy)-2-fluorophenyl)amino)-7-methoxyquinazolin-6-yl)amino)piperidin-1-yl)prop-2-en-1-one]"
≥ 1 µM,≥ 1 µM,≥ 1 µM,≥ 1 µM,0.6 to 1 µM,"C=CC(=O)N1CCC(Nc2cc3c(Nc4ccc(Oc5ccnc(C6CCN(C)CC6)c5)cc4F)ncnc3cc2OC)CC1 [Example 186, 1-(4-((4-((2-fluoro-4-((2-(1-methylpiperidin-4-yl)pyridin-4-yl)oxy)phenyl)amino)-7-methoxyquinazolin-6-yl)amino)piperidin-1-yl)prop-2-en-1-one]"
≥ 1 µM,< 0.03 µM,< 0.03 µM,0.03 to 0.06 µM,0.06 to 0.1 µM,"C=CC(=O)N1CCC(Nc2cc3c(Nc4ccc(Oc5ccnc(-n6cc(C)cn6)c5)cc4F)ncnc3cc2OC)CC1 [Compound 232, 1-(4-((4-((2-fluoro-4-((2-(4-methyl-1H-pyrazol-1-yl)pyridin-4-yl)oxy)phenyl)amino)-7-methoxyquinazolin-6-yl)amino)piperidin-1-yl)prop-2-en-1-one]"
0.1 to 0.3 µM,< 0.03 µM,< 0.03 µM,< 0.03 µM,< 0.03 µM,"C=CC(=O)N1CCC(Nc2cc3c(Nc4ccc(Oc5ccn(-c6cnc(OC)nc6)n5)c(F)c4)ncnc3cc2OC)CC1 [Example 54, 1-(4-((4-((3-fluoro-4-((1-(2-methoxypyrimidin-5-yl)-1H-pyrazol-3-yl)oxy)phenyl)amino)-7-methoxyquinazolin-6-yl)amino)piperidin-1-yl)prop-2-en-1-one]"
≥ 1 µM,< 0.03 µM,< 0.03 µM,< 0.03 µM,0.1 to 0.3 µM,"C=CC(=O)N1CCC(Nc2cc3c(Nc4ccc(Oc5ccnc(-c6nnc(C)o6)c5)cc4F)ncnc3cc2OC)CC1 [Compound 193, 1-(4-((4-((2-fluoro-4-((2-(5-methyl-1,3,4-oxadiazol-2-yl)pyridin-4-yl)oxy)phenyl)amino)-7-methoxyquinazolin-6-yl)amino)piperidin-1-yl)prop-2-en-1-one]"
0.3 to 0.6 µM,< 0.03 µM,< 0.03 µM,< 0.03 µM,0.03 to 0.06 µM,"C=CC(=O)N1CCC(Nc2cc3c(Nc4ccc(Oc5ccn(-c6cnc(C)cc6C)n5)cc4F)ncnc3cc2OC)CC1 [Example 37, 1-(4-((4-((4-((1-(4,6-dimethylpyridin-3-yl)-1H-pyrazol-3-yl)oxy)-2-fluorophenyl)amino)-7-methoxyquinazolin-6-yl)amino)piperidin-1-yl)prop-2-en-1-one]"
0.1 to 0.3 µM,0.03 to 0.06 µM,< 0.03 µM,< 0.03 µM,0.06 to 0.1 µM,"C=CC(=O)N1CCC(Oc2cc3c(Nc4ccc(Oc5ccnc(N6CC7C(C6)C7(F)F)c5)cc4F)ncnc3cc2OC)CC1 (centres unmarked) [Example 188, 1-(4-((4-((4-((2-(6,6-difluoro-3-azabicyclo[3.1.0]hexan-3-yl)pyridin-4-yl)oxy)-2-fluorophenyl)amino)-7-methoxyquinazolin-6-yl)oxy)piperidin-1-yl)prop-2-en-1-one]"
≥ 1 µM,≥ 1 µM,≥ 1 µM,≥ 1 µM,≥ 1 µM,"C=CC(=O)Nc1cc2c(Nc3ccc(Oc4ccnc(N5C[C@@H](C)O[C@@H](C)C5)c4)cc3F)ncnc2cc1OCC [Example 169, N-(4-((4-((2-((2S,6R)-2,6-dimethylmorpholino)pyridin-4-yl)oxy)-2-fluorophenyl)amino)-7-ethoxyquinazolin-6-yl)acrylamide]"
0.1 to 0.3 µM,< 0.03 µM,< 0.03 µM,< 0.03 µM,0.06 to 0.1 µM,"C=CC(=O)N1CCC(Nc2cc3c(Nc4ccc(Oc5ccnc(-c6nc(C)cs6)c5)cc4F)ncnc3cc2OC)CC1 [Example 98, 1-(4-((4-((2-fluoro-4-((2-(4-methylthiazol-2-yl)pyridin-4-yl)oxy)phenyl)amino)-7-methoxyquinazolin-6-yl)amino)piperidin-1-yl)prop-2-en-1-one]"
0.06 to 0.1 µM,< 0.03 µM,< 0.03 µM,< 0.03 µM,< 0.03 µM,"C=CC(=O)N1CCC(Nc2cc3c(Nc4ccc(Oc5ccnc(NC6CC6)c5)cc4F)ncnc3cc2OC)CC1 [Example 244, 1-(4-((4-((4-((2-(cyclopropylamino)pyridin-4-yl)oxy)-2-fluorophenyl)amino)-7-methoxyquinazolin-6-yl)amino)piperidin-1-yl)prop-2-en-1-one]"
0.1 to 0.3 µM,< 0.03 µM,< 0.03 µM,< 0.03 µM,0.06 to 0.1 µM,"C=CC(=O)N1CCC(Nc2cc3c(Nc4ccc(Oc5ccnc(N6CC[C@H](F)C6)c5)cc4F)ncnc3cc2OC)CC1 [Example 196, (S)-1-(4-((4-((2-fluoro-4-((2-(3-fluoropyrrolidin-1-yl)pyridin-4-yl)oxy)phenyl)amino)-7-methoxyquinazolin-6-yl)amino)piperidin-1-yl)prop-2-en-1-one]"
0.6 to 1 µM,< 0.03 µM,< 0.03 µM,< 0.03 µM,0.1 to 0.3 µM,"C=CC(=O)N1CCC(Nc2cc3c(Nc4ccc(Oc5ccnc(N6CCO[C@H](C)C6)c5)cc4F)ncnc3cc2OC)CC1 [Example 133, (R)-1-(4-((4-((2-fluoro-4-((2-(2-methylmorpholino)pyridin-4-yl)oxy)phenyl)amino)-7-methoxyquinazolin-6-yl)amino)piperidin-1-yl)prop-2-en-1-one]"
0.6 to 1 µM,0.1 to 0.3 µM,0.1 to 0.3 µM,0.1 to 0.3 µM,0.3 to 0.6 µM,"C=CC(=O)N1CCC(Nc2cc3c(Nc4ccc(Oc5ccnc(N6CCN(C)C(=O)C6)c5)cc4F)ncnc3cc2OC)CC1 [Example 223, 4-(4-(4-((6-((1-acryloylpiperidin-4-yl)amino)-7-methoxyquinazolin-4-yl)amino)-3-fluorophenoxy)pyridin-2-yl)-1-methylpiperazin-2-one]"
0.1 to 0.3 µM,0.1 to 0.3 µM,0.1 to 0.3 µM,0.06 to 0.1 µM,0.1 to 0.3 µM,"C=CC(=O)N1CCC(Nc2cc3c(Nc4ccc(Oc5ccnc(N6CCCC6)c5)cc4F)ncnc3cc2OC)CC1 [Example 102, 1-(4-((4-((2-fluoro-4-((2-(pyrrolidin-1-yl)pyridin-4-yl)oxy)phenyl)amino)-7-methoxyquinazolin-6-yl)amino)piperidin-1-yl)prop-2-en-1-one]"
0.3 to 0.6 µM,0.3 to 0.6 µM,0.3 to 0.6 µM,0.3 to 0.6 µM,≥ 1 µM,"C=CC(=O)N1CCC(Nc2cc3c(Nc4ccc(Oc5nc(-c6ccc(C)nc6)cs5)cc4F)ncnc3cc2OC)CC1 [Compound 6, 1-(4-((4-((2-fluoro-4-((4-(6-methylpyridin-3-yl)thiazol-2-yl)oxy)phenyl)amino)-7-methoxyquinazolin-6-yl)amino)piperidin-1-yl)prop-2-en-1-one]"
≥ 1 µM,0.03 to 0.06 µM,< 0.03 µM,0.06 to 0.1 µM,0.3 to 0.6 µM,"C=CC(=O)N1CCC(Nc2cc3c(Nc4ccc(Oc5ccnc(N6CCOC[C@@H]6C)c5)cc4F)ncnc3cc2OC)CC1 [Example 135, (S)-1-(4-((4-((2-fluoro-4-((2-(3-methylmorpholino)pyridin-4-yl)oxy)phenyl)amino)-7-methoxyquinazolin-6-yl)amino)piperidin-1-yl)prop-2-en-1-one]"
